Biological target: Human RSK2 (Homo sapiens (Human), UniProt P51812)
Assay: Human RSK2 Assay (Kinase Glo Plus, residual ATP)
Format: biochemical
Conditions: 0.75 nM His-RSK2, 0.75 μM ATP, 1.0 μM S6 Kinase/RSK Substrate Peptide 1
Description: Experimental Method A: Human RSK2 Assay
Compounds are assessed for their ability to inhibit the phosphorylation of a substrate peptide by RSK2.
Human RSK2 protein, purchased from Invitrogen, is used to measure kinase activity utilizing Kinase Glo Plus (Promega) a homogeneous assay technology, which uses a luciferin-luciferase based ATP detection reagent to quantify residual ATP. The assay is performed using 0.75 nM His-RSK2, 0.75 μM ATP and 1.0 μM S6 Kinase/RSK Substrate Peptide 1 (Upstate, catalog #12-124), in assay buffer consisting of 25 mM HEPES, pH 7.5, 10 mM MgCl2, 5 mM MnCl2, 50 mM KCl, 0.2% BSA, 0.01% CHAPS, 100 μM Na3VO4, 0.5 mM DTT, and 1% DMSO. Solutions of test compounds at various concentrations are prepared by 1:3 fold serial dilution of a 1 mM solution of compound in DMSO. The DMSO solutions are further diluted with assay buffer to a final concentration of DMSO of 5%.
The assay is performed in a 384 well, white, non-binding plate (Corning, catalogue #3574). Solutions of test compounds (10 μL) are transferred to a dry assay plate, followed by addition of 20 μL kinase and 20 μL ATP+Substrate Peptide 1 described above. The kinase reaction mixture is incubated for 90 minutes at 28° C. followed by addition of 30 μL of ATP detection reagent for 15 minutes at room temperature. The relative light unit (RLU) signal is measured on a LJL Analyst (Molecular Devices) in luminescence mode using 384 aperture. The RLU signals were converted to percent of control (POC) values using the formula: POC=100*(BCTRL−Signal)/(BCTRL−PCTRL), where Signal is the test well RLU signal, BCTRL is the average of background (negative control), which consists of ATP+peptide and compound buffer, well signals on the plate, and PCTRL is the average of positive control, which consists of kinase, ATP+peptide, and compound buffer, well signals on the plate. For concentration-responsive compounds, POC as a function of test compound concentration are fitted to a 4-parameter logistic equation of the form: Y=A+(B−A)/[1+(x/C)^D], where A, B, C, and D are fitted parameters (parameter B is fixed at zero POC), and x and y are the independent and dependent variables, respectively. The IC50 (50% inhibitory concentration) is determined as the inflection point parameter, C. Experimental Method B: Human RSK2 Trans-Reporter Assay

Sequence of Human RSK2 (P51812 whole entry): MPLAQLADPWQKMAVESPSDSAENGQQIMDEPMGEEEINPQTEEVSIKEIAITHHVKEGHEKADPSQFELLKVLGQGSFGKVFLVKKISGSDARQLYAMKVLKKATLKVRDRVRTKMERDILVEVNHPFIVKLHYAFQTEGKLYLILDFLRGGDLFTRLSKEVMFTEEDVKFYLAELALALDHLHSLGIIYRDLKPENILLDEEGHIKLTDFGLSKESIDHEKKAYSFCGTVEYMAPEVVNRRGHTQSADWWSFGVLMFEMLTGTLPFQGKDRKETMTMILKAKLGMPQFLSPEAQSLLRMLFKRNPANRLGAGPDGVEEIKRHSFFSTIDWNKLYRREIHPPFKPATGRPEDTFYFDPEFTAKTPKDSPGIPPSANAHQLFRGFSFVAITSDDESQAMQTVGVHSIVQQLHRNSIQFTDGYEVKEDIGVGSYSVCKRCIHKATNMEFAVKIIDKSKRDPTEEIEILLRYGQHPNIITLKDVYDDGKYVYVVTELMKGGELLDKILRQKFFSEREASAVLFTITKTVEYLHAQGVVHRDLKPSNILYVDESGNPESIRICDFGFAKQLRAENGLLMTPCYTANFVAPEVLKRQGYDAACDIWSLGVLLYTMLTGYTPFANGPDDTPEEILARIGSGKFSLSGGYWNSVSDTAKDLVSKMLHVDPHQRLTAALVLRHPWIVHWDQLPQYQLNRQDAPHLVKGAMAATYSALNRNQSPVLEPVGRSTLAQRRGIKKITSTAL

Compound	IC50 [nM]
C[C@H]1NC(=O)c2cc3ccc(C(=O)Nc4cnn(Cc5ccccc5)c4)nc3n2[C@H]1C (relative stereo) [Example 61, N-(1-benzyl-1H-pyrazol-4-yl)-cis-8,9-dimethyl-6-oxo-6,7,8,9-tetrahydropyrido[3′,2′:4,5]pyrrolo[1,2-a]pyrazine-2-carboxamide]	0.34
C[C@@H]1NC(=O)c2cc3ccc(C(=O)Nc4cnn(Cc5ccccc5)c4)nc3n2[C@H]1C (relative stereo) [Example 62, N-(1-benzyl-1H-pyrazol-4-yl)-trans-8,9-dimethyl-6-oxo-6,7,8,9-tetrahydropyrido[3′,2′:4,5]pyrrolo[1,2-a]pyrazine-2-carboxamide]	3
CCn1c(NC(=O)c2ccc3cc4n(c3n2)[C@@H](C)[C@@H](C)NC4=O)nc2ccccc21 (relative stereo) [Example 73, N-(1-ethyl-1H-benzimidazol-2-yl)- cis-8,9-dimethyl-6-oxo-6,7,8,9-tetrahydropyrido[3′,2′:4,5]pyrrolo[1,2-a]pyrazine-2-carboxamide]	11.6
CCn1c(NC(=O)c2ccc3cc4n(c3n2)[C@@H](C)[C@H](C)NC4=O)nc2ccccc21 (relative stereo) [Example 74, N-(1-ethyl-1H-benzimidazol-2-yl)- trans-8,9-dimethyl-6-oxo-6,7,8,9-tetrahydropyrido[3′,2′:4,5]pyrrolo[1,2-a]pyrazine-2-carboxamide]	1110
C[C@H]1NC(=O)c2cc3ccc(C(=O)Nc4nc5ccccc5n4CCCN(C)C)nc3n2[C@H]1C (relative stereo) [Example 77, N-{1-[3-(dimethylamino)propyl]-1H-benzimidazol-2-yl}-cis-8,9-dimethyl-6-oxo-6,7,8,9-tetrahydropyrido[3′,2′:4,5]pyrrolo[1,2-a]pyrazine-2-carboxamide]	29
C[C@@H]1NC(=O)c2cc3ccc(C(=O)Nc4nc5ccccc5n4CCCN(C)C)nc3n2[C@H]1C (relative stereo) [Example 78, N-{1-[3-(dimethylamino)propyl]-1H-benzimidazol-2-yl}-trans-8,9-dimethyl-6-oxo-6,7,8,9-tetrahydropyrido[3′,2′:4,5]pyrrolo[1,2-a]pyrazine-2-carboxamide]	205
Cc1cc(NC(=O)c2ccc3cc4n(c3n2)[C@@H](C)[C@@H](C)NC4=O)no1 (relative stereo) [Example 85, Cis-8,9-dimethyl-N-(5-methyl-1,2-oxazol-3-yl)-6-oxo-6,7,8,9-tetrahydropyrido[3′,2′:4,5]pyrrolo[1,2-a]pyrazine-2-carboxamide]	2.6
Cc1cc(NC(=O)c2ccc3cc4n(c3n2)[C@@H](C)[C@H](C)NC4=O)no1 (relative stereo) [Example 86, Trans-8,9-dimethyl-N-(5-methyl-1,2-oxazol-3-yl)-6-oxo-6,7,8,9-tetrahydropyrido[3′,2′:4,5]pyrrolo[1,2-a]pyrazine-2-carboxamide]	110
C[C@H]1NC(=O)c2cc3ccc(C(=O)Nc4cc(Cc5ccccc5)on4)nc3n2[C@H]1C (relative stereo) [Example 99, N-(5-benzyl-1,2-oxazol-3-yl)-cis-8,9-dimethyl-6-oxo-6,7,8,9-tetrahydropyrido[3′,2′:4,5]pyrrolo[1,2-a]pyrazine-2-carboxamide]	5.1
C[C@@H]1NC(=O)c2cc3ccc(C(=O)Nc4cc(Cc5ccccc5)on4)nc3n2[C@H]1C (relative stereo) [Example 100, N-(5-benzyl-1,2-oxazol-3-yl)-trans-8,9-dimethyl-6-oxo-6,7,8,9-tetrahydropyrido[3′,2′:4,5]pyrrolo[1,2-a]pyrazine-2-carboxamide]	57
O=C(Nc1cccnc1)c1ccc2nc3n(c2c1)CCCNC3=O [Example 1, 1-oxo-N-(pyridin-3-yl)-2,3,4,5-tetrahydro-1H-[1,4]diazepino[1,2-a]benzimidazole-8-carboxamide]	5600
Cn1c(NC(=O)c2ccc3nc4n(c3c2)CCCNC4=O)nc2ccccc21 [Example 2, N-(1-methyl-1H-benzimidazol-2-yl)-1-oxo-2,3,4,5-tetrahydro-1H-[1,4]diazepino[1,2-a]benzimidazole-8-carboxamide]	35
CCn1c(NC(=O)c2ccc3nc4n(c3c2)CCCNC4=O)nc2ccccc21 [Example 3, N-(1-ethyl-1H-benzimidazol-2-yl)-1-oxo-2,3,4,5-tetrahydro-1H-[1,4]diazepino[1,2-a]benzimidazole-8-carboxamide]	5.5
CC(C)n1c(NC(=O)c2ccc3nc4n(c3c2)CCCNC4=O)nc2ccccc21 [Example 4, 1-oxo-N-[1-(propan-2-yl)-1H-benzimidazol-2-yl]-2,3,4,5-tetrahydro-1H-[1,4]diazepino[1,2-a]benzimidazole-8-carboxamide]	33
Cc1ccnc(NC(=O)c2ccc3nc4n(c3c2)CCCNC4=O)c1 [Example 5, N-(4-methylpyridin-2-yl)-1-oxo-2,3,4,5-tetrahydro-1H-[1,4]diazepino[1,2-a]benzimidazole-8-carboxamide]	3200
O=C(Nc1cnn(Cc2ccccc2)c1)c1ccc2nc3n(c2c1)CCCNC3=O [Example 6, N-(1-benzyl-1H-pyrazol-4-yl)-1-oxo-2,3,4,5-tetrahydro-1H-[1,4]diazepino[1,2-a]benzimidazole-8-carboxamide]	44
Cc1nc(-c2cccc(NC(=O)c3ccc4nc5n(c4c3)CCCNC5=O)c2)cs1 [Example 7, N-[3-(2-methyl-1,3-thiazol-4-yl)phenyl]-1-oxo-2,3,4,5-tetrahydro-1H-[1,4]diazepino[1,2-a]benzimidazole-8-carboxamide]	1700
O=C(Nc1cccc(F)c1)c1ccc2nc3n(c2c1)CCCNC3=O [Example 8, N-(3-fluorophenyl)-1-oxo-2,3,4,5-tetrahydro-1H-[1,4]diazepino[1,2-a]benzimidazole-8-carboxamide]	960
NC(=O)c1ccccc1NC(=O)c1ccc2nc3n(c2c1)CCCNC3=O [Example 9, N-(2-carbamoylphenyl)-1-oxo-2,3,4,5-tetrahydro-1H-[1,4]diazepino[1,2-a]benzimidazole-8-carboxamide]	295
Cn1cc(NC(=O)c2ccc3nc4n(c3c2)CCCNC4=O)nc1C(=O)NC1CCCC1 [Example 10, N-[2-(cyclopentylcarbamoyl)-1-methyl-1H-imidazol-4-yl]-1-oxo-2,3,4,5-tetrahydro-1H-[1,4]diazepino[1,2-a]benzimidazole-8-carboxamide]	69
CC(C)n1ncc2cc(NC(=O)c3ccc4nc5n(c4c3)CCCNC5=O)cnc21 [Example 11, 1-oxo-N-[1-(propan-2-yl)-1H-pyrazolo[3,4-b]pyridin-5-yl]-2,3,4,5-tetrahydro-1H-[1,4]diazepino[1,2-a]benzimidazole-8-carboxamide]	870
O=C(Nc1cnc2ccccc2c1)c1ccc2nc3n(c2c1)CCCNC3=O [Example 12, 1-oxo-N-(quinolin-3-yl)-2,3,4,5-tetrahydro-1H-[1,4]diazepino[1,2-a]benzimidazole-8-carboxamide]	1200
Cn1cc(NC(=O)c2ccc3nc4n(c3c2)CCCNC4=O)cn1 [Example 13, N-(1-methyl-1H-pyrazol-4-yl)-1-oxo-2,3,4,5-tetrahydro-1H-[1,4]diazepino[1,2-a]benzimidazole-8-carboxamide]	320
Cn1cc(NC(=O)c2ccc3nc4n(c3c2)C(C)(C)CCNC4=O)cn1 [Example 14, 5,5-dimethyl-N-(1-methyl-1H-pyrazol-4-yl)-1-oxo-2,3,4,5-tetrahydro-1H-[1,4]diazepino[1,2-a]benzimidazole-8-carboxamide]	4000
CCn1c(NC(=O)c2ccc3nc4n(c3c2)CCCNC4=O)nc2ccc(Cl)nc21 [Example 15, N-(5-chloro-3-ethyl-3H-imidazo[4,5-b]pyridin-2-yl)-1-oxo-2,3,4,5-tetrahydro-1H-[1,4]diazepino[1,2-a]benzimidazole-8-carboxamide]	45
CN(C)CCCn1c(NC(=O)c2ccc3nc4n(c3c2)CCCNC4=O)nc2ccccc21 [Example 16, N-{1-[3-(dimethylamino)propyl]-1H-benzimidazol-2-yl}-1-oxo-2,3,4,5-tetrahydro-1H-[1,4]diazepino[1,2-a]benzimidazole-8-carboxamide]	92
CCn1c(NC(=O)c2ccc3nc4n(c3c2)CCCNC4=O)nc2cccnc21 [Example 17, N-(3-ethyl-3H-imidazol[4,5-b]pyridin-2-yl)-1-oxo-2,3,4,5-tetrahydro-1H-[1,4]diazepino[1,2-a]benzimidazole-8-carboxamide]	23
